test system: MIAPaCa/FG2 cells; experiment: EC50 assay of small molecule activated γδ T cells to kill tumor cells (3-fold dilution, 0.05-100 nM); type: cell-based; conditions: T-cell, γδT cells co-cultured with MIAPaCa/FG2 cells, E:T=2:1, 20 hours, compound diluted 3-fold, chemiluminescence, read-out: killing data of MIAPaCa/FG2 cells (EC50)
Procedure: γδT cells and MIAPaCa/FG2 tumor cell lines were expanded and cultured in vitro. MIAPaCa/FG2 cells were digested, and the cells were counted and resuspended in DMEM complete medium, the density of the cell suspension was adjusted and added into a 96-well plate at 5×10^3 cells/50 μL/well for overnight incubation. On the next day, the test compound and the control compound were diluted at a 3-fold ratio with DMSO, and 4 μL of the diluted compound was added to 96 μL of culture medium for 25-fold dilution. 5 μL of 25-fold diluted compound was transferred to the corresponding well which had been plated with tumor cells, and the actual detection concentration was in the range of 0.05-100 nM. γδT cells were resuspended in γδT complete medium, and the density of the cell suspension was adjusted according to the effector-target ratio of E:T=2:1, and then the cell was added to the corresponding well at 1×10^4 cells/100 μL/well. After co-culture at 37° C., 5% CO2 for 20 hours, the cells were centrifuged. The supernatant was removed, and 50 μL of cell lysate containing […] substrate was added to each well. After standing for 18 minutes in the dark, the signal of chemiluminescence was detected. The EC50 value was calculated by four-parameter fitting, with the corresponding signal value of the well with only tumor cells as the minimum killing value, and the corresponding value of the well without tumor cells as the maximum killing value. The killing data of MIAPaCa/FG2 cells are as follows: […]

SMILES | EC50 [nM]
C/C(=C\CCP(=O)(N[C@@H](C)C(=O)OC(C)C)Oc1ccccc1)CO (stereo partly drawn) [Control compound 1, Isopropyl (((E)-5-hydroxy-4-methylpent-3-en-1-yl)(phenoxy)phosphoryl)-L-alaninate, reference compound] | 0.53

same assay, conditions: γδT cells co-cultured with MIAPaCa/FG2 cells, E:T=2:1, 20 hours, compound diluted 3-fold, chemiluminescence, read-out: killing data of MIAPaCa/FG2 cells (EC50)

SMILES | EC50 [nM]
C/C(=C\CCP(=O)(N[C@@H](C)C(=O)OCC(C)C)Oc1ccc(C[C@H](NCCCc2ccccc2)C(=O)NC(C)C)cc1)CO (stereo partly drawn) [Compound 16, Isobutyl (((E)-5-hydroxy-4-methylpent-3-en-1-yl)(4-((S)-3-(isopropylamino)-3-oxo-2-((3-phenylpropyl)amino)propyl)phenoxy)phosphoryl)-L-alaninate] | 0.011
CCC(CC)OC(=O)[C@H](C)NP(=O)(CC/C=C(\C)CO)Oc1ccc(C[C@H](NCCCc2ccccc2)C(=O)O[C@H]2CCOC2)cc1 (stereo partly drawn) [Compound 13, (S)-tetrahydrofuran-3-yl (2S)-3-(4-((((E)-5-hydroxy-4-methylpent-3-en-1-yl)(((S)-1-oxo-1-(pentan-3-yloxy)propan-2-yl)amino)phosphoryl)oxy)phenyl)-2-((3-phenylpropyl)amino)propionate] | 0.42
C/C(=C\CC[P@@](=O)(N[C@@H](C)C(=O)NC(C)C)Oc1ccc(C[C@H](NCCCc2ccccc2)C(=O)O[C@H]2CCOC2)cc1)CO [Compound 14] | 0.016
C/C(=C\CCP(=O)(N[C@@H](C)C(=O)OC(C)C)Oc1ccc(C[C@H](NCCCc2ccccc2)C(=O)O[C@@H]2CCOC2)cc1)CO (stereo partly drawn) [Compound 8] | 0.052
C/C(=C\CCP(=O)(N[C@@H](C)C(=O)OC(C)C)Oc1ccc(C[C@H](NCCCc2ccccc2)C(=O)O[C@H]2CCOC2)cc1)CO (stereo partly drawn) [Compound 9] | 0.012
C/C(=C\CCP(=O)(N[C@@H](C)C(=O)OC(C)C)Oc1ccc(C[C@H](NCCc2ccccc2)C(=O)O[C@H]2CCOC2)cc1)CO (stereo partly drawn) [Compound 11, (S)-Tetrahydrofuran-3-yl (2S)-3-(4-((((E)-5-hydroxy-4-methylpent-3-en-1-yl)(((S)-1-isopropoxy-1-oxopropan-2-yl)amino)phosphor yl)oxy)phenyl)-2-(phenethylamino)propionate] | 41.7
C/C(=C\CC[P@](=O)(N[C@@H](C)C(=O)NC(C)C)Oc1ccc(C[C@H](NCCCc2ccccc2)C(=O)O[C@H]2CCOC2)cc1)CO [Compound 15] | 1.6
C/C(=C\CCP(=O)(N[C@@H](C)C(=O)OCC(C)C)Oc1ccc(C[C@H](NCCCc2ccccc2)C(=O)O[C@H]2CCOC2)cc1)CO (stereo partly drawn) [Compound 12, (S)-tetrahydrofuran-3-yl (2S)-3-(4-((((E)-5-hydroxy-4-methylpent-3-en-1-yl)(((S)-1-isobutoxy-1-oxopropan-2-yl)amino)phosphoryl)oxy)phenyl)-2-((3-phenylpropyl)amino)propionate] | 0.011

test system: MIAPaCa/FG2 cells; experiment: EC50 assay of small molecule activated γδ T cells to kill tumor cells (10-fold dilution, 10^-12-10^-5 M); type: cell-based; conditions: Homo sapiens, MIA PaCa-2, 20 h, read-out: MIApaca killing (nM)
Procedure: γδT cells and MIAPaCa/FG2 tumor cell lines were expanded and cultured in vitro. The MIAPaCa/FG2 cells were digested, and the cells were counted and resuspended in DMEM complete medium, the density of the cell suspension was adjusted and added into a 96-well plate at 5×10^3 cells/50 μL/well for overnight incubation. On the next day, the test compound and the control compound were diluted at a 10-fold ratio with γδT complete medium. 50 μL of diluted compound was transferred to the corresponding wells which had been plated with tumor cells, and the actual detection concentration was in the range of 10^−12-10^−5 M. γδT cells were resuspended in γδT complete medium, and the density of the cell suspension was adjusted according to the effector-target ratio of E:T=2:1, and then the cells were added to the corresponding wells at 1×10^4 cells/50 μL/well. After co-culture at 37° C., 5% CO2 for 20 hours, the cells were centrifuged. The supernatant was removed, and 50 μL of cell lysate containing luciferin substrate was added to each well. After standing for 18 minutes in the dark, the signal of chemiluminescence was detected. The EC50 value was calculated by four-parameter fitting, with the corresponding signal value of the well with only tumor cells as the minimum killing value, and the corresponding signal value of the well without tumor cells as the maximum killing value. The killing data of MIAPaCa/FG2 cells are as follows: […]

SMILES | EC50 [nM]
C/C(=C\CCP(=O)(N[C@@H](C)C(=O)OC(C)C)Oc1ccccc1)CO (stereo partly drawn) [Control compound 1, Isopropyl (((E)-5-hydroxy-4-methylpent-3-en-1-yl)(phenoxy)phosphoryl)-L-alaninate, reference compound] | 0.57

same assay, conditions: Homo sapiens, MIA PaCa-2; γδT cells co-cultured with MIAPaCa/FG2 cells, E:T=2:1, 20 hours; compound diluted 10-fold, 10^-12-10^-5 M; chemiluminescence; read-out: MIApaca killing

SMILES | EC50 [nM]
CC(C)OC(=O)[C@H](C)NP(=O)(OC/C=C(/CO)C(F)(F)F)Oc1ccc(C[C@H](NC(=O)OCc2ccccc2)C(=O)OC2CCCC2)cc1 (stereo partly drawn) [Compound 6] | 11.4
CC(C)OC(=O)[C@H](Cc1ccc(OP(=O)(N[C@@H](C)C(=O)OC2CCCC2)OC/C=C(/CO)C(F)(F)F)cc1)NC(=O)OCc1ccccc1 (stereo partly drawn) [Compound 7] | 9.6

same assay, conditions: read-out: MIApaca killing; γδT cells co-cultured with MIAPaCa/FG2 cells, E:T=2:1, 20 hours; compound diluted 10-fold, 10^-12-10^-5 M; chemiluminescence

SMILES | EC50 [nM]
C/C(=C\CCP(=O)(N[C@@H](C)C(=O)OC(C)C)Oc1ccc(C[C@H](NC(=O)OCc2ccccc2)C(=O)OC2CCCC2)cc1)CO (stereo partly drawn) [Compound 1, Cyclopentyl (2S)-2-(benzyloxycarbonylamino)-3-[4-[[(E)-5-hydroxy-4-methyl-pent-3-enyl]-[[(1S)-2-isopropoxy-1-methyl-2-oxo-ethyl]amino]phosphoryl]oxyphenyl]propionate] | 0.1
C/C(=C\CCP(=O)(N[C@@H](C)C(=O)OC(C)C)Oc1ccc(C[C@H](NC(=O)OCc2ccccc2)C(=O)O[C@H]2CCOC2)cc1)CO (stereo partly drawn) [Compound 2, (S)-tetrahydrofuran-3-yl (2S)-2-(benzyloxycarbonylamino)-3-[4-[[(E)-5-hydroxy-4-methyl-pent-3-enyl]-[[(1S)-2-isopropoxy-1-methyl-2-oxo-ethyl]amino]phosphoryl]oxyphenyl]propionate] | 0.12
C/C(=C\CCP(=O)(N[C@@H](C)C(=O)OC1CCCC1)Oc1ccc(C[C@H](NC(=O)OCc2ccccc2)C(=O)OC(C)C)cc1)CO (stereo partly drawn) [Compound 4, Isopropyl (2S)-2-(benzyloxycarbonylamino)-3-[4-[[(E)-5-hydroxy-4-methyl-pent-3-enyl]-[[(1S)-2-isocyclopentyloxy-1-methyl-2-oxo-ethyl]amino]phosphoryl]oxyphenyl]propionate] | 0.07
C/C(=C\CCP(=O)(N[C@@H](C)C(=O)OC(C)C)Oc1ccc(C[C@H](NC(=O)CCc2ccccc2)C(=O)OC2CCCC2)cc1)CO (stereo partly drawn) [Compound 5, Cyclopentyl (2S)-2-(3-phenylpropionylamino)-3-[4-[[(E)-5-hydroxy-4-methyl-pent-3-enyl]-[[(1S)-2-isopropoxy-1-methyl-2-oxo-ethyl]amino]phosphoryl]oxyphenyl]propionate] | 0.06
C/C(=C\CCP(=O)(N[C@@H](C)C(=O)OC(C)C)Oc1ccc(C[C@H](NC(=O)OCc2ccccc2)C(=O)O[C@@H]2CCOC2)cc1)CO (stereo partly drawn) [Compound 3, (R)-tetrahydrofuran-3-yl (2S)-2-(benzyloxycarbonylamino)-3-[4-[[(E)-5-hydroxy-4-methyl-pent-3-enyl]-[[(1S)-2-isopropoxy-1-methyl-2-oxo-ethyl]amino]phosphoryl]oxyphenyl]propionate] | 0.17

same assay, conditions: γδT cells co-cultured with MIAPaCa/FG2 cells, E:T=2:1, 20 hours; compound diluted 10-fold, 10^-12-10^-5 M; chemiluminescence; read-out: MIApaca killing

SMILES | EC50 [nM]
C/C(=C\COP(=O)(O)OP(=O)(O)O)CO [HMBPP control, reference compound] | 2.1
